Calls of active or inactive are those of the source. The rule behind the calls is not given here.
Molecular target: Toxin B (TcdB) glycohydrolase, Clostridioides difficile 630
Assay: TcdB glycohydrolase inhibitors, dose response, biochemical, cherry-pick, plate reader (AID 720512)
Details: recombinant TcdB glycohydrolase activity; for activity change, negative = inhibition: at 19.5 µM (top of the series)

Row | Structure (SMILES) | activity change, negative = inhibition | AC50
1 | COc1ccc(OC)c2sc(NNC(=O)C3COc4ccccc4O3)nc12 (stereo not given) | inactive | 
2 | CCN(CC)S(=O)(=O)c1cc(C(=O)Nc2cccnc2Cl)ccc1Cl | inactive | 
3 | CN(C)c1ccc(/C=C/c2cccc[n+]2[O-])cc1 | inactive | 
4 | COc1ccccc1OCC(=O)Nc1ccc(-c2nnc(-c3ccco3)o2)cc1 | inactive | 
5 | O=C(NNc1nc2c(F)cc(F)cc2s1)C1COc2ccccc2O1 (stereo not given) | inactive | 
6 | O=C(NCc1ccncc1)[C@@H]1CCCN1C(=O)[C@@H]1CCCN1 | inactive | 
7 | Cc1ccc(-c2cc(C(=O)NNC(=O)c3csc(N4CCOCC4)n3)c3ccccc3n2)cc1 | inactive | 
8 | CCCCCCCN1C(N(C)C)=NC[C@@H]1Cc1ccccc1 | inactive | 
9 | CCCCn1c(N)c(N(CCOC)C(=O)CSc2nnc(-c3ccco3)n2CC)c(=O)[nH]c1=O | inactive | 
10 | C[C@H](CO)N1C[C@H](C)[C@@H](CN(C)C(=O)Nc2ccc(C(F)(F)F)cc2)Oc2c(NS(=O)(=O)c3cccs3)cccc2C1=O |  | > 39 µM (inactive)
11 | CC1(C)CC(=O)C(C=Nc2ccc(N)cc2)=C(O)C1 | inactive | 
12 | CN1C(=O)c2cc(NC(=O)c3cccc(F)c3)ccc2OC[C@@H]2O[C@@H](CC(=O)NCC3CCCCC3)CC[C@@H]21 | inactive | 
13 | Cc1ccc(NNC(=O)c2ccno2)c(C)c1 | inactive | 
14 | Cn1c(=O)c2c([nH]c(=S)n2Cc2ccc(Cl)cc2)n(C)c1=O | inactive | 
15 | C[C@H](CO)N1C[C@H](C)[C@@H](CN(C)CC2CCCCC2)Oc2ccc(NC(=O)CCN3CCOCC3)cc2C1=O | inactive | 
16 | Oc1ccc(/C=N/Nc2ncnc3nc[nH]c23)cc1 | inactive | 
17 | COC(=O)[C@@]12CCCCN1[C@H](c1ccc(-c3ccccc3)c(OC)c1)[C@H]1C(=O)N(C)C(=O)[C@H]12 | inactive | 
18 | Oc1ccc(/C=N/n2cc(-c3ccccc3)[nH]c2=S)cc1 | inactive | 
19 | O=C1/C(=C/c2cccnc2)SC(=NCc2ccccc2)N1Cc1ccccc1 | inactive | 
20 | CCN(CCN(C)C)C(=O)C1CCN(S(=O)(=O)c2c(C)noc2/C=C/c2ccccc2F)CC1 | inactive | 
21 | CSc1nc2c(c(=O)[nH]c(=O)n2C)n1Cc1ccccc1 | inactive | 
22 | Cc1nc2ccccn2c1-c1ccnn1S(=O)(=O)c1ccc(F)cc1 | inactive | 
23 | Cc1ccn2c(Cc3ccccc3)c(-c3ccc(F)cc3)nc2c1 | inactive | 

Row | Structure (SMILES) | activity change, negative = inhibition | AC50
24 | COc1ccccc1-n1c(SCC(=O)O)nc2c(sc(=S)n2-c2ccc(C)c(C)c2)c1=O | inactive | 
25 | CN1c2ccc(-c3ccccc3)cc2[C@@H]2[C@@H](CCN2C(=O)CN2CCOCC2)[C@@H]1CO |  | > 39 µM (inactive)
26 | CCOc1cc(/C=N/O)ccc1OCc1ccc(C)cc1 | inactive | 
27 | COc1cc(/C=C/C(=O)OCC(=O)NC(=O)NC(C)(C)C)ccc1O |  | > 39 µM (inactive)
28 | CN1C(=O)c2cc(NC(=O)c3cccc(F)c3)ccc2OC[C@@H]2O[C@@H](CC(=O)NCC3CCCCC3)CC[C@H]21 | inactive | 
29 | O=P1(Oc2ccccc2)OCCCS1 (stereo not given) | inactive | 
30 | Cn1ncc(Br)c1C(=O)N/N=C/c1cccc(OC2CSC2)c1 | inactive | 
31 | C[C@@H]1CN([C@@H](C)CO)S(=O)(=O)c2ccc(-c3ccncc3)cc2O[C@@H]1CN(C)Cc1ccc(Oc2ccccc2)cc1 | inactive | 
32 | C=CCNS(=O)(=O)c1nc(C)c(Cl)c(C)c1C#N | inactive | 
33 | COc1ccc(Cl)cc1NC(=O)Cn1c(NCCO)nc2ccccc21 | inactive | 
34 | Cc1cc(C)cc(N=C2NC(=O)CS2)c1 | inactive | 
35 | O=CN(c1ccccc1)c1ccc2ccccc2c1 | inactive | 
36 | O=C(Nc1ccc(O)cc1)/C(=C\c1ccncc1)NC(=O)c1ccccc1 | inactive | 
37 | CCCn1c(N)c(C(=O)COC(=O)c2cccc(S(=O)(=O)N3CCOCC3)c2)c(=O)[nH]c1=O | inactive | 
38 | C[C@H]1CN([C@@H](C)CO)S(=O)(=O)c2ccc(-c3ccncc3)cc2O[C@@H]1CN(C)Cc1ccc(Oc2ccccc2)cc1 | inactive | 
39 | COc1ccc(C(=O)Nc2ccc3c(c2)C(=O)N(C)[C@@H]2CC[C@H](CC(=O)NCC4CC4)O[C@@H]2CO3)cc1 | inactive | 
40 | CCOc1ccc(/C=N/n2nnnc2N)cc1O |  | > 39 µM (inactive)
41 | Cc1cc(N/N=C/c2ccncc2)nc2ccccc12 | inactive | 
42 | CCOc1ccc2c(C)nc(NC3=NC(C)(C)C=C(C)N3)nc2c1 | inactive | 
43 | COc1ccc(CNC(=O)C2=CC(c3ccc(OC)c(OC)c3)=NS(=O)(=O)N2C)cc1 | inactive | 
44 | O=C(OCC(=O)N1CCCCC1)c1ccccc1SCC(=O)N1CCCCC1 | inactive | 
45 | CC1CCCN(C(=S)Nc2ccc(F)cc2)C1 (stereo not given) | inactive | 
46 | CCNC(=O)C[C@H]1CC[C@@H]2[C@H](COc3ccc(NC(=O)c4ccc5c(c4)OCO5)cc3C(=O)N2C)O1 |  | > 42 µM (inactive)

Row | Structure (SMILES) | activity change, negative = inhibition | AC50
47 | COc1ccccc1C1=NNC(=NCc2ccccc2)SC1 | inactive | 
48 | O=C(Nc1ccc(O)cc1)C1CCCN1S(=O)(=O)c1ccc(F)cc1 (stereo not given) | inactive | 
49 | C=CCN=c1scc(C)n1/N=C/c1ccc(O)c(O)c1 | inactive | 
50 | Cc1cccc(OCCC(=O)NCC(=O)Nc2cccc(C)c2C)c1 |  | > 39 µM (inactive)
51 | Cc1nc(SCC(=O)N2CCNC2=O)c(C#N)c(C)c1C | inactive | 
52 | COc1ccc(Cl)cc1NC(=S)NC1CCCC1 | inactive | 
53 | O=c1[nH]c(/C=C\c2ccc(O)c(Cl)c2)nc(O)c1[N+](=O)[O-] |  | > 39 µM (inactive)
54 | CCCC(=O)Nc1sc2c(c1C(=O)Nc1ccccn1)CCCC2 | inactive | 
55 | O=C(C[C@@H]1C[C@H]2c3cc(NC(=O)Nc4ccccc4)ccc3O[C@H]2[C@H](CO)O1)NCc1ccccc1 | inactive | 
56 | CN(C)c1ccc(C(=S)N2CCN(C(=S)Nc3ccc(Cl)cc3)CC2)cc1 | inactive | 
57 | Cc1ccc(C2=NS(=O)(=O)N(C)C(C(=O)NCc3ccc4c(c3)OCO4)=C2)cc1 | inactive | 
58 | O=c1c2ccccc2oc2ccc(NCCCN3CCOCC3)cc12 | inactive | 
59 | Nc1nc(CCOc2ccc(F)cc2)cs1 | inactive | 
60 | CCOC(=O)c1cc([N+](=O)[O-])sc1N | inactive | 
61 | CCOC(=O)[C@H]1[C@H]2COc3ccc(OC)cc3[C@@H]2N2C(=O)CN(Cc3ccc(Cl)cc3)C(=O)[C@@]12C | inactive | 
62 | O=C(O)c1ccccc1NC(=O)N1C[C@H]2C[C@@H](C1)c1cccc(=O)n1C2 | inactive | 
63 | Cc1ccc(/C=N/NC(=O)c2cccc(S(=O)(=O)Nc3ccccc3Cl)c2)o1 | inactive | 
64 | Cc1ccnc(N2C(=O)c3ccccc3C2=O)c1 | inactive | 
65 | Cn1ncc(Cl)c1C(=O)N/N=C/c1cccc(OC2CSC2)c1 | inactive | 
66 | COc1cc(Cn2nnc3ccccc32)ccc1O | inactive | 
67 | Cc1ccc(-c2nc3ccc([N+](=O)[O-])cc3[nH]2)cc1 | inactive | 
68 | CCCNC(=O)Nc1ccc2c(c1)C(=O)N(C)[C@@H]1CC[C@H](CC(=O)NC3CCC3)O[C@H]1CO2 | inactive | 
69 | CC(=O)C(Sc1nccc(-c2cccs2)n1)C(C)=O | inactive | 

Row | Structure (SMILES) | activity change, negative = inhibition | AC50
70 | CC1(C)CCC/C(=C\c2ccccc2)C1=O | inactive | 
71 | Cc1[nH]nc(-c2ccc(O)cc2O)c1Oc1ccccc1 | inactive | 
72 | O=C1COc2ccc(C(=O)COC(=O)CNS(=O)(=O)c3cccc(F)c3)cc2N1 | inactive | 
73 | O=C(Cc1ccccn1)c1ccncc1 | inactive | 
74 | Cc1c(O)ccc(NC(=O)/C=C/c2ccccc2)c1C | inactive | 
75 | N#CCCN(C(=O)COC(=O)c1cc(=O)c2ccccc2o1)c1ccccc1 | inactive | 
76 | Cc1c(C(=O)c2ccccc2)c2ccccn2c1CCc1ccccn1 | inactive | 
77 | CCC(=O)Nc1ccc2c(c1)OC[C@@H](C)N(C(=O)NC(C)C)C[C@@H](C)[C@@H](OC)CN(C)C2=O | inactive | 
78 | CCOC(=O)/C(=N/Nc1ccc(Br)cc1)N1CC(C)OC(C)C1 (stereo not given) |  | 6.61 µM
79 | CCC(=O)N1CC[C@@H]2[C@H]1c1cc(-c3ccccc3)ccc1N(C)[C@H]2CO |  | > 42 µM (inactive)
80 | COc1cc(/C=N/n2c(-c3ccccc3)n[nH]c2=S)ccc1O |  | > 39 µM (inactive)
81 | CC(C)C12NC(=O)NC(=O)N1CCS2 (stereo not given) | inactive | 
82 | CN1CCN(C(CNC(=O)c2ccc(Br)o2)c2ccc(F)cc2)CC1 (stereo not given) | inactive | 
83 | CC(=O)Nc1cccc2cc(O)ccc12 |  | > 39 µM (inactive)
84 | Oc1ccc(-c2nc3cnccn3c2Nc2ccc3c(c2)OCCO3)cc1 | inactive | 
85 | O=C(Nc1ccc(N2CCOCC2)c(Cl)c1)c1ccc2c(c1)OCCO2 | inactive | 
86 | CNC(=O)C1CCN(S(=O)(=O)c2c(C)noc2/C=C/c2ccc(OC)cc2)CC1 | inactive | 
87 | CCOC(=O)c1cccc(NC(=O)CCNS(=O)(=O)c2cccc3nonc23)c1 | inactive | 
88 | O=C1Nc2ccc(Br)cc2C1Cc1ccccc1F (stereo not given) |  | > 39 µM (inactive)
89 | CCCc1cc(=O)oc2c3c(cc(OCC(=O)NCCCn4ccnc4)c12)OC(C)(C)CC3 | inactive | 
90 | Cc1[nH]ccc2c1[nH]c1cc(=O)ccc12 | inactive | 

— PubChem BioAssay AID720512 (Broad Institute, 2013)
